Laboratory results reported in patent publication US9260429B2, “Pyrido[3,4-B]indoles and methods of use” (Medivation Technologies, Inc., priority 2008, dated 2016).

What was measured:
[1] = target: T1, human recombinant serotonin (5-Hydroxytryptamine) 5-HT7 receptor (Homo sapiens, UniProt P34969); experiment: Serotonin 5-HT7 radioligand binding ([3H]LSD); settings: 2 h; read-out: Percent Inhibition of ligand binding Serotonin (1 μM ligand concentration) 5-HT7
T1 construct: expressed in transfected cells; host or cells: CHO cells
T1 sequence (P34969 whole entry): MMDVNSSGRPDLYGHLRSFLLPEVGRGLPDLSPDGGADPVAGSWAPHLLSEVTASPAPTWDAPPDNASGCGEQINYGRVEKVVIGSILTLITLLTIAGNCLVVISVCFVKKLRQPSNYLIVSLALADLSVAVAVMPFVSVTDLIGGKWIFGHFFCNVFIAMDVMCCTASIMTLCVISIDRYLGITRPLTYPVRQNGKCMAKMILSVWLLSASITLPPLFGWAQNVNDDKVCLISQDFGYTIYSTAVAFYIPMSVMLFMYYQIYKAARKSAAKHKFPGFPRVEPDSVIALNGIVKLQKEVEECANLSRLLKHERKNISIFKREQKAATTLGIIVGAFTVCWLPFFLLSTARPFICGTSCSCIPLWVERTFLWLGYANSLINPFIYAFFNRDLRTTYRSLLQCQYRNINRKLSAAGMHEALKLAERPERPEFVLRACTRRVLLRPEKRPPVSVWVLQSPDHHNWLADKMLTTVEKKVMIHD
Method: To evaluate in radioligand binding assays the activity of compounds of the invention, human recombinant serotonin (5-Hydroxytryptamine) 5-HT7 receptor expressed in Chinese hamster ovary (CHO) cells (Roth, B. L. et al., J. Pharmacol. Exp. Ther. 268:1403, 1994; Shen, Y. et al., J. Biol. Chem. 268:18200, 1993) in a modified Tris-HCl buffer (50 mM Tris-HCl, pH 7.4, 10 mM MgCl2, 0.5 mM EDTA) was used. Compounds of invention were incubated with 5.5 nM [^3H]Lysergic acid diethylamide (LSD) for 2 hours at 25° C. Non-specific binding was estimated in the presence of […] Serotonin (5-HT). Receptor proteins were filtered and washed, the filters were then counted to determine [^3H]LSD specifically bound. Compounds were screened at 1 μM or lower, using 1% DMSO as vehicle. Biochemical assay results are presented as the percent inhibition of specific binding in Table 5.

[2] = target: T2, human recombinant serotonin (5-Hydroxytryptamine) 5-HT2A receptor (Homo sapiens, UniProt P28223); experiment: Serotonin 5-HT2A radioligand binding ([3H]Ketanserin); settings: 1 h; read-out: Percent Inhibition of ligand binding Serotonin (1 μM ligand concentration) 5-HT2A
T2 construct: expressed in transfected cells; host or cells: CHO-K1 cells
T2 sequence (P28223 whole entry): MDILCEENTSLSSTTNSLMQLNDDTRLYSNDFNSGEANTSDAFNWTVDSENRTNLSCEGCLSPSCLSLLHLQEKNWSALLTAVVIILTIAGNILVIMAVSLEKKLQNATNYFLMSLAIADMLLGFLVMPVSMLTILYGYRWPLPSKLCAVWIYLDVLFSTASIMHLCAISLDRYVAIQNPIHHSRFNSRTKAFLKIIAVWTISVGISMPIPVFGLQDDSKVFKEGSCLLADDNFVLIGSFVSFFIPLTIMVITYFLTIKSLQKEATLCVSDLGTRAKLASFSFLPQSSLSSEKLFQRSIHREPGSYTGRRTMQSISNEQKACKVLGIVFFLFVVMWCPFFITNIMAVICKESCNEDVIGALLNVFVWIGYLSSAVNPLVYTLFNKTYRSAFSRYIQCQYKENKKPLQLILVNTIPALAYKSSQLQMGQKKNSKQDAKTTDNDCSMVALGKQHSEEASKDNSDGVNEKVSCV
Method: To evaluate in radioligand binding assays the activity of compounds of the invention, human recombinant serotonin (5-Hydroxytryptamine) 5-HT2A receptor expressed in Chinese hamster ovary (CHO-K1) cells (Bonhaus, D. W. et al. Br. J. Pharmacol. 115:622, 1995; Saucier, C. and Albert, P. R., J. Neurochem. 68:1998, 1997) in a 50 mM Tris-HCl buffer, pH 7.4, was used. Compounds of the invention were incubated with 0.5 nM [^3H]Ketanserin for 60 minutes at 25° C. Non-specific binding was estimated in the presence of 1 μM Mianserin. Receptor proteins were filtered and washed, the filters were then counted to determine [^3H]Ketanserin specifically bound. Compounds were screened at 1 μM or lower, using 1% DMSO as vehicle. Biochemical assay results are presented as the percent inhibition of specific binding in Table 5.

[3] = target: T3, human recombinant histamine H2 receptor (Homo sapiens, UniProt P25021); experiment: Histamine H2 radioligand binding ([125I]Aminopotentidine); settings: 1 μM; inhibition of specific [125I]Aminopotentidine binding; read-out: Binding data (Percentage Inhibition) Histamine Binding (1 μM) H2
T3 construct: expressed in transfected cells; host or cells: CHO-K1 cells
T3 sequence (P25021 whole entry): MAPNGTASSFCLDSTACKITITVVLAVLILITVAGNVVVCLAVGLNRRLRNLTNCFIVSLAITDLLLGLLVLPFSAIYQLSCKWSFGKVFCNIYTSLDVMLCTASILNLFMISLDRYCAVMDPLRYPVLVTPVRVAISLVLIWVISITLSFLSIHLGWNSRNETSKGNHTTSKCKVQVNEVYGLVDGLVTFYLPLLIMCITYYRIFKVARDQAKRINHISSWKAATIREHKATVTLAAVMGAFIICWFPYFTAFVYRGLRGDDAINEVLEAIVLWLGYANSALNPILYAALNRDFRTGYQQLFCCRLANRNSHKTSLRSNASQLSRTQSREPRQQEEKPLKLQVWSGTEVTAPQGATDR
Method: To evaluate in radioligand binding assays the activity of compounds of the invention, human recombinant histamine H2 receptor expressed in Chinese hamster ovary (CHO) K1 cells (Ruat, M., Proc. Natl. Acad. Sci. USA. 87(5):1658, 1990) in a 50 mM Phosphate buffer, pH 7.4 was used. Compounds of the invention were incubated with 0.1 nM [^125I]Aminopotentidine for 120 minutes at 25° C. Non-specific binding was estimated in the presence of 3 μM Tiotidine. Receptor proteins were filtered and washed, the filters were then counted to determine [^125I]Aminopotentidine specifically bound. Compounds were screened at 1 μM or lower, using 1% DMSO as vehicle. Biochemical assay results are presented as the percent inhibition of specific binding in Table 3.

[4] = target: T4, human recombinant histamine H1 receptor (Homo sapiens, UniProt P35367); experiment: Histamine H1 radioligand binding ([3H]Pyrilamine); settings: 1 μM; read-out: Binding data (Percentage Inhibition) Histamine Binding (1 μM) H1
T4 construct: expressed in transfected cells; host or cells: CHO cells
T4 sequence (P35367 whole entry): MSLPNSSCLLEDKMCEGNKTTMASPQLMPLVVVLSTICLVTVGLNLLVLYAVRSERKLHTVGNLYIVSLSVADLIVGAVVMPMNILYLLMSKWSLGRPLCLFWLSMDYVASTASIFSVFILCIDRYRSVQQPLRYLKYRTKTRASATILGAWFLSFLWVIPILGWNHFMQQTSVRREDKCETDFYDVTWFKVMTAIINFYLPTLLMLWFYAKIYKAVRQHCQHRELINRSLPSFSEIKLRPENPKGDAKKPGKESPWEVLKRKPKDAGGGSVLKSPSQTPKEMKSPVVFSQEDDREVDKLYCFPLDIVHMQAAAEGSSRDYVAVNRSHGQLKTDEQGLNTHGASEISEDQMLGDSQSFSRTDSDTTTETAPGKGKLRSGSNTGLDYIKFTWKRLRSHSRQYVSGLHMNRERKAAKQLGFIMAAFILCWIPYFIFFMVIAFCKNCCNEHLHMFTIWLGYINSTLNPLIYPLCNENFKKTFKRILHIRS
Method: To evaluate in radioligand binding assays the activity of compounds of the invention, human recombinant histamine H1 receptor expressed in Chinese hamster ovary (CHO) cells (De Backer, M. D. et al., Biochem. Biophys. Res. Comm. 197(3):1601, 1993) in a modified Tris-HCl buffer (50 mM Tris-HCl, pH 7.4, 2 mM MgCl2, 100 mM NaCl, 250 mM Sucrose) was used. Compounds of the invention were incubated with 1.2 nM [^3H]Pyrilamine for 180 minutes at 25° C. Non-specific binding was estimated in the presence of 1 μM pyrilamine. Receptor proteins were filtered and washed, the filters were then counted to determine [^3H]Pyrilamine specifically bound. […] Biochemical assay results are presented as the percent inhibition of specific binding in Table 3.

[5] = target: T5, human recombinant dopamine D2L receptor (Homo sapiens, UniProt P14416); experiment: Dopamine D2L radioligand binding ([3H]Spiperone); settings: 2 h, 1 μM ligand conc.; read-out: Percent Inhibition of ligand binding Dopamine (1 μM ligand conc.) D2L
T5 construct: expressed in transfected cells; host or cells: CHO cells
T5 sequence (P14416 whole entry): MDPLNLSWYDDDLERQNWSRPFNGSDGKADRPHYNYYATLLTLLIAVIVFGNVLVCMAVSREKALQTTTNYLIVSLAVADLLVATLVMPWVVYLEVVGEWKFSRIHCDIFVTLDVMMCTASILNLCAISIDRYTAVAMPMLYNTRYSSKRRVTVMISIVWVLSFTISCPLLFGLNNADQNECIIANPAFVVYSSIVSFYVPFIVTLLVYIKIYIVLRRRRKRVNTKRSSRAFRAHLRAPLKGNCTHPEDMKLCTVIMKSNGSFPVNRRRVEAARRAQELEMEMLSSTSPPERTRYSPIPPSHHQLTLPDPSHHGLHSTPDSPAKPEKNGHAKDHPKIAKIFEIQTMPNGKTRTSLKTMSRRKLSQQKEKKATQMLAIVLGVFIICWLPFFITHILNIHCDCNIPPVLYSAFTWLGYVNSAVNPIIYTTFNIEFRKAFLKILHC
Method: To evaluate in radioligand binding assays the activity of compounds of the invention, human recombinant dopamine D2L receptor expressed in Chinese hamster ovary (CHO) cells (Grandy, D. K. et al. Proc. Natl. Acad. Sci. USA. 86:9762, 1989; Hayes, G. et al., Mol. Endocrinol. 6:920, 1992) in a modified Tris-HCl buffer (50 mM Tris-HCl, pH 7.4, 1.4 mM Ascorbic Acid, 0.001% BSA, 150 mM NaCl) was used. Compounds of the invention were incubated with 0.16 nM [^3H]Spiperone for 120 minutes at 25° C. Non-specific binding was estimated in the presence of […] Haloperidol. Receptor proteins were filtered and washed, the filters were then counted to determine [^3H]Spiperone specifically bound. Compounds were screened at 1 μM or lower, using 1% DMSO as vehicle. Biochemical assay results are presented as the percent inhibition of specific binding in Table 4.

[6] = target: T6, human recombinant serotonin (5-Hydroxytryptamine) 5-HT2C receptor (Homo sapiens, UniProt P28335); experiment: Serotonin 5-HT2C radioligand binding ([3H]Mesulergine); settings: 1 h; read-out: Percent Inhibition of ligand binding Serotonin (1 μM ligand concentration) 5-HT2C
T6 construct: expressed in transfected cells; host or cells: CHO-K1 cells
T6 sequence (P28335 33-458): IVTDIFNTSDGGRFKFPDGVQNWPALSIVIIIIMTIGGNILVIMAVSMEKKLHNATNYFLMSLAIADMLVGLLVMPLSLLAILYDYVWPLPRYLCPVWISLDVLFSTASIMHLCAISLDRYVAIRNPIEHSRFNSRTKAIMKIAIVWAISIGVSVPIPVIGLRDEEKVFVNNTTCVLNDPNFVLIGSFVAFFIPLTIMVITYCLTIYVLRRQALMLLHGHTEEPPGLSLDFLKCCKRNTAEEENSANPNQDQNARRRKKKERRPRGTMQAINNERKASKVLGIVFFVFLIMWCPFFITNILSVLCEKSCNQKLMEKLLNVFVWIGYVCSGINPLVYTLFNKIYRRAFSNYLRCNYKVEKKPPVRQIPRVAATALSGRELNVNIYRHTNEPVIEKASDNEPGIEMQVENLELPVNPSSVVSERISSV
Method: Compounds of the invention were incubated with 1 nM [^3H]Mesulergine for 60 minutes at 25° C. Non-specific binding was estimated in the presence of 1 μM Mianserin. Receptor proteins were filtered and washed, the filters were then counted to determine [^3H]Mesulergine specifically bound. […] Biochemical assay results are presented as the percent inhibition of specific binding in Table 5.

[7] = target: T7, human recombinant serotonin (5-Hydroxytryptamine) 5-HT6 receptor (Homo sapiens, UniProt P50406); experiment: Serotonin 5-HT6 radioligand binding ([3H]LSD); settings: 2 h; read-out: Percent Inhibition of ligand binding Serotonin (1 μM ligand concentration) 5-HT6
T7 construct: expressed in transfected cells; host or cells: human HeLa cells
T7 sequence (P50406 whole entry): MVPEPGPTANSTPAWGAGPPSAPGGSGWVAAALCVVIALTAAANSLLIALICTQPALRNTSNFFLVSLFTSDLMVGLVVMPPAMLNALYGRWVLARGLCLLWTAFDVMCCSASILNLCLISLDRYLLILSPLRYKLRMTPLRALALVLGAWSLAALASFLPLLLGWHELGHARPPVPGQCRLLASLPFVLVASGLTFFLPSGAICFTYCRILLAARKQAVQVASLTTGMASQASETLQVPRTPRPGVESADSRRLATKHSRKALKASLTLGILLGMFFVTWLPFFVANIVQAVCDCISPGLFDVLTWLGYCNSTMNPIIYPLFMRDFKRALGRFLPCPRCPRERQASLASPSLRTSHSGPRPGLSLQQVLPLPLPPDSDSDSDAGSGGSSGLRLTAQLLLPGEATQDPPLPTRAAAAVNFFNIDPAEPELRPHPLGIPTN
Method: To evaluate in radioligand binding assays the activity of compounds of the invention, human recombinant serotonin (5-Hydroxytryptamine) 5-HT6 receptor expressed in human HeLa cells (Monsma, F. J. Jr. et al., Mol. Pharmacol. 43:320, 1993) in a modified Tris-HCl buffer (50 mM Tris-HCl, pH 7.4, 150 mM NaCl, 2 mM Ascorbic Acid, 0.001% BSA) was used. Compounds of the invention were incubated with 1.5 nM [3H]Lysergic acid diethylamide (LSD) for 120 minutes at 37° C. Non-specific binding was estimated in the presence of […] Serotonin (5-HT). Receptor proteins were filtered and washed, the filters were then counted to determine [3H]LSD specifically bound. Compounds were screened at 1 μM or lower, using 1% DMSO as vehicle. Biochemical assay results are presented as the percent inhibition of specific binding in Table 5.

Row | Compound | inhibition at 1 µM [1] [%] | inhibition at 1 µM [2] [%] | inhibition at 1 µM [3] [%] | inhibition at 1 µM [4] [%] | inhibition at 1 µM [5] [%] | inhibition at 1 µM [6] [%] | inhibition at 1 µM [7] [%]
1 | CCC1c2c(c3cc(Cl)ccc3n2/C=C(\C)c2cccnc2)CCN1C (stereo not shown) [Compound 108] | 62 | 45 | 12 | 30 | -4 | 60 | 6
2 | C/C(=C\n1c2c(c3cc(C)ccc31)CCN(C)C2)c1ccc(F)c(F)c1 [Compound 109, 9-(2-(3,4-difluorophenyl)prop-1-enyl)-2,6-dimethyl-2,3,4,9-tetrahydro-1H-pyrido[3,4-b]indole] | 96 | 96 | 67 | 20 | 12 | 97 | 72
3 | C/C(=C\n1c2c(c3cc(Cl)ccc31)CCN(C)C2)c1ccc(F)c(F)c1 [Compound 110, 6-chloro-9-(2-(3,4-difluorophenyl)prop-1-enyl)-2-methyl-2,3,4,9-tetrahydro-1H-pyrido[3,4-b]indole] | 87 | 93 | 64 | 25 | 10 | 97 | 73
4 | C/C(=C\n1c2c(c3cc(Cl)ccc31)CCN(C)C2C)c1ccc(F)c(F)c1 (stereo not shown) [Compound 111, 6-chloro-9-(2-(3,4-difluorophenyl)prop-1-enyl)-1,2-dimethyl-2,3,4,9-tetrahydro-1H-pyrido[3,4-b]indole] | 78 | 79 | 61 | 60 | 5 | 93 | 88
5 | CCC1c2c(c3cc(Cl)ccc3n2/C=C(\C)c2ccc(F)c(F)c2)CCN1C (stereo not shown) [Compound 112, 6-chloro-9-(2-(3,4-difluorophenyl)prop-1-enyl)-1-ethyl-2-methyl-2,3,4,9-tetrahydro-1H-pyrido[3,4-b]indole] | 67 | 82 | 38 | 33 | 12 | 94 | 61
6 | C/C(=C\n1c2c(c3cc(C)ccc31)CCN(C)C2)c1ccc(Cl)c(Cl)c1 [Compound 113, 9-(2-(3,4-dichlorophenyl)prop-1-enyl)-2,6-dimethyl-2,3,4,9-tetrahydro-1H-pyrido[3,4-b]indole] | 84 | 99 | 81 | 26 | 9 | 91 | 49
7 | C/C(=C\n1c2c(c3cc(Cl)ccc31)CCN(C)C2)c1ccc(Cl)c(Cl)c1 [Compound 114, 6-chloro-9-(2-(3,4-dichlorophenyl)prop-1-enyl)-2-methyl-2,3,4,9-tetrahydro-1H-pyrido[3,4-b]indole] | 87 | 93 | 75 | 30 | 8 | 95 | 42
8 | C/C(=C\n1c2c(c3cc(Cl)ccc31)CCN(C)C2C)c1ccc(Cl)c(Cl)c1 (stereo not shown) [Compound 115, 6-chloro-9-(2-(3,4-dichlorophenyl)prop-1-enyl)-1,2-dimethyl-2,3,4,9-tetrahydro-1H-pyrido[3,4-b]indole] | 74 | 85 | 71 | 50 | 0 | 86 | 40
9 | CCC1c2c(c3cc(Cl)ccc3n2/C=C(\C)c2ccc(Cl)c(Cl)c2)CCN1C (stereo not shown) [Compound 116, 6-chloro-9-(2-(3,4-dichlorophenyl)prop-1-enyl)-1-ethyl-2-methyl-2,3,4,9-tetrahydro-1H-pyrido[3,4-b]indole] | 51 | 83 | 50 | 8 | 0 | 85 | 38
10 | COc1ccc(/C(C)=C/n2c3c(c4cc(C)ccc42)CCN(C)C3)cc1F [Compound 121, 9-(2-(3-fluoro-4-methoxyphenyl)prop-1-enyl)-2,6-dimethyl-2,3,4,9-tetrahydro-1H-pyrido[3,4-b]indole] | 94 | 96 | 50 | 9 | 21 | 102 | 33
